Measured values taken from patent US7713972B2, “Imidazotriazinone derivatives as PDE 7 (phosphodiesterase 7) inhibitors” (Asubio Pharma Co., Ltd., priority 2003, dated 2010).

Biological target: T1, PDE 7 (phosphodiesterase VII) (Homo sapiens, UniProt Q13946)
T1 construct: endogenous in cells; host or cells: MOLT-4 (ATCC CRL-1582), soluble fraction, HiTrap Q column, fraction eluting at about 350 mM NaCl
Assay: PDE 7 inhibiting effect (Biological Test 1; 3H-cAMP hydrolysis by PDE 7 active fraction from MOLT-4 cells)
Type: biochemical
Conditions: PDE 7 fraction from MOLT-4 cells; 0.064 μM cAMP, 10 μM rolipram present, 2 hours at 25° C.; read-out: PDE 7 inhibiting activities, IC50
Protocol: The PDE 7 (phosphodiesterase VII) inhibiting effect of the compounds of the present invention was performed by the following method, which was modified assay method described in Biochemical. Pharmacol. 48(6), 1219-1223 (1994).
(1) The active fraction of PDE 7 (phosphodiesterase VII) was obtained. That is, MOLT-4 (obtainable from ATCC as ATCC No. CRL-1582), which was cell line of human acute lymphoblastic lymphoma T cells, was incubated in RPMI1640 culture medium containing 10% fetal bovine serum to obtain 5×10^8 MOLT-4 cells. The cells were collected by centrifugation and suspended with 10 mL of buffer solution A [25 mM of tris-HCl, 5 mM of 2-mercaptoethnol, 2 mM of benzamidine, 2 mM of EDTA, 0.1 mM of 4-(2-aminoethyl) benzensulfonyl hydrochloride; pH 7.5], then homogenized by Polytron® homogenizer. The homogenate were centrifuged under 25,000×G for 10 minutes at 4° C. The supernatant was separated and thus obtained supernatant was further centrifuged under 100,000×G for 60 minutes at 4° C., and then filtrated with 0.2 μm filter to obtain the soluble fraction. (2) The obtained soluble fraction was filled in equilibrium HiTrap Q column (5 mL×2) with buffer solution A, and phosphodiesterase fractions were eluted by 300 mL of buffer solution A with linear gradient from 0 to 0.8 M NaCl concentration. 5 ml each of 60 eluents were collected, and each eluents were examined for cyclic AMP metabolic activities of phosphodiesterase. The fraction eluting with about 350 mM NaCl concentration parts, where metabolic activities were not inactivated by 10 μM of rolipram (selective inhibitor for phosphodiesterase IV) and 10 μM of milrinone (selective inhibitor for phosphodiesterase III), were collected as storage solution for using to test PDE 7 inhibiting effect. […] Further, SEPHADEX®-QAE (cross-linked dextran gel) was added to the obtained supernatant and the mixture was leaved at rest for 5 minutes, then, the radioactivity of the solution was measured. […]

T1 sequence (Q13946 whole entry): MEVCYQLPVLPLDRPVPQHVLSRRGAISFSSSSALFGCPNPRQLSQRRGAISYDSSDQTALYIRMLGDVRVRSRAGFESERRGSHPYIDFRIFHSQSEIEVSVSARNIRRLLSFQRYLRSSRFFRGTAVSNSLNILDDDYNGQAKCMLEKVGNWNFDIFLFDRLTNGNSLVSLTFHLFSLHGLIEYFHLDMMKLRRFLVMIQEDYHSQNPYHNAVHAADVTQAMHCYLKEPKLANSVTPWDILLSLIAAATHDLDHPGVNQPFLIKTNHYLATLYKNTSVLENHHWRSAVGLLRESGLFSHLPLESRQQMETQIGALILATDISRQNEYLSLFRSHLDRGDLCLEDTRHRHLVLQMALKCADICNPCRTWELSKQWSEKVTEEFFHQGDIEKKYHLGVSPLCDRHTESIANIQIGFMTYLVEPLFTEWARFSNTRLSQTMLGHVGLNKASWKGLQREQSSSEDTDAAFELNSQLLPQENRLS

Row | IC50 | SMILES
1 | 490 nM | COc1ccccc1-c1nn2c(C)nc(C3CCCCC3)c2c(=O)[nH]1 [Compound 12, 5-Cyclohexyl-2-(2-methoxyphenyl)-7-methylimidazo-[5,1-f][1,2,4]triazin-4(3H)-one]
2 | 55 nM | COc1cc(N2CCN(C)CC2)ccc1-c1nc2c(C)nc(C3CCCCC3)n2c(=O)[nH]1 [Compound 11, 6-Cyclohexyl-2-[2-methoxy-4-(4-methyl-1-piperadinyl)phenyl]-8-methylimidazo[1,5-a][1,3,5]triazin-4(3H)-one]
3 | 340 nM | COc1ccccc1-c1nc2c(C)nc(C3CCCCC3)n2c(=O)[nH]1 [Compound 8, 6-Cyclohexyl-2-(2-methoxyphenyl)-8-methylimidazo[1,5-a][1,3,5]-triazin-4(3H)-one]
